Source: patent publication US20250388625A1, “CYCLOSPORINE ANALOGUES” (priority 2022, published 2025)

How the values were obtained:
CypA = CypA (Homo sapiens, UniProt P62937); experiment: biochemical; assay type: binding
Description: CypA binding was carried out using surface plasmon resonance as described (Warne J Biol Chem. 2016 Feb. 26; 291 (9): 4356-73).
Surface Plasmon Resonance (SPR) using Biacore at 25° C. was used to study the binding interactions between CypA and various inhibitors. The SPR binding experiments used a duel flow cell with a blank reference. The sensor chip surface was initially activated with a mixture of N-hydroxysuccinimide (NHS,) and N-(3-dimethyl-aminopropyl)-N′-ethyl-carbodiimide hydrochloride (EDC) for 420 s with a flow rate of 10 μl/min on blank flow cell 1 in addition to flow cell 2.
CypA protein was diluted to a concentration of 50 μg/mL by the addition of 10 mM sodium acetate pH 5 solution before immobilisation and covalent attachment to the carboxy-methylated dextran matrix of the Biacore CM5 sensor chip. CypA was run against the surface for 420 s and then any unreacted surface was quenched by 420 s of ethanolamine.
Immobilisations were carried out in the presence of JW47 (Warne J Biol Chem. 2016 Feb. 26; 291 (9): 4356-73).
No regeneration stage was required if the dissociation time was sufficient.
Solvent correction was carried out in each experiment using 8 different DMSO dilutions as reference: 2.8%, 2.6%, 2.4%, 2.2%, 2%, 1.8%, 1.6% & 1.5%.
A 50/50 mixture of buffer and DMSO is required to include a wash cycle in the experiment.
50 μl of CypA (0.1 mg/ml)+40 μL of 10 mM sodium acetate pH5+10 μl of 600 μM of JW47 DMSO solution. This mixture was allowed to stand at room temperature for 10 mins prior to set-up in the injection rack.

Human stem cells (HSC) [1] = experiment: Mean fluorescent intensity of transduced human stem cells (FIG. 7); assay type: cell-based; conditions: Examples 5 and 6
Description: Here a different measurement was made of transgene expression using the cells from the same experiment as that above (Example 5). Rather than measuring the number of cells transduced (% infection) the mean fluorescent intensity (greenness of the transgene expressing cells) was measured.

[2] = system: SARS-COV-2 (Alpha, Delta or Omicron isolates); experiment: SARS-COV-2 replication in Calu-3 lung epithelial cells by RT-qPCR (FIG. 9B); assay type: cell-based
Human stem cells (HSC) [3] = experiment: Cell viability of human stem cells (FIG. 5); conditions: compared with PS+LB treatment
IFITM3 [4] = biological target: T1, IFITM3 (Homo sapiens, UniProt Q01628); assay type: cell-based; design: treated with 10 ng/ml type 1 interferon (IFNβ) overnight to induce IFITM3 expression; endogenous in cells; host or cells: THP-1 (human monocytic cell line), IFNβ-treated
T1 sequence (Q01628 whole entry): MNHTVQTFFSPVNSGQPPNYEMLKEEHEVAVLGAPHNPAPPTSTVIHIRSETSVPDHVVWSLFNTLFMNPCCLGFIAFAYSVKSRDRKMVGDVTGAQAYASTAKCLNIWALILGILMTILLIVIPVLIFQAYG

IFITM3 [5] = biological target: T1, IFITM3; experiment: IFITM3 levels by immunoblot in IFNβ-treated THP-1 cells (FIG. 9A); assay type: cell-based; design: treated with 10 ng/ml type 1 interferon (IFNβ) overnight to induce IFITM3 expression; endogenous in cells; host or cells: THP-1 (human monocytic cell line), IFNβ-treated; conditions: 5 μM, 6 hours; Actin loading control
Description: THP-1 cells (human monocytic cell line) were treated with […] Type I interferon (IFNβ) overnight to induce IFITM3 expression. […] Protein samples were harvested 6 hours later and the IFITM3 levels measured by immunoblot with Actin detected as a loading control. IFN induces IFITM3.

CypA, sequence (P62937 whole entry): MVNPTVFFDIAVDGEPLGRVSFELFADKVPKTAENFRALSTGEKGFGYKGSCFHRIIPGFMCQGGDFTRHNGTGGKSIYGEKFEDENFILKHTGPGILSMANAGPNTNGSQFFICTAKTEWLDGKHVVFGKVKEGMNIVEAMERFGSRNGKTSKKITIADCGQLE

CC[C@@H]1NC(=O)[C@H]([C@H](O)[C@H](C)C/C=C/c2ccc(C(=O)OCCn3ccnc3)cc2)N(C)C(=O)[C@H](C(C)C)N(C)C(=O)[C@H](CC(C)C)N(C)C(=O)[C@H](CC(C)C)N(C)C(=O)[C@@H](C)NC(=O)[C@H](C)NC(=O)[C@H](CC(C)C)N(C)C(=O)[C@H](C(C)C)NC(=O)[C@H](CC(C)C)N(C)C(=O)CN(C)C1=O [JW3-158, 2-(1H-imidazol-1-yl)ethyl-4-((4R,5R,E)-5-((2S,5S,11S,14S,17S,20S,23R,26S,29S,32S)-5-ethyl-11,17,26,29-tetraisobutyl-14,32-diisopropyl-1,7,10,16,20,23,25,28,31-nonamethyl-3,6,9,12,15,18,21,24,27,30,33-undecaoxo-1,4,7,10,13,16,19,22,25,28,31-undecaazacyclotritriacontan-2-yl)-5-hydroxy-4-methylpent-1-en-1-yl)benzoate]
koff (CypA): 0.00217 s⁻¹ | kon (CypA): 13400 M⁻¹ s⁻¹ | Kd (CypA; Kd (Affinity), SPR, Biacore, 25° C.): 1830 nM | Kd (CypA; Kd (Kinetics), SPR, Biacore, 25° C.): 160 nM | Max Response (CypA; SPR, Biacore, 25° C.): 27.0 RU | overall performance as transduction enhancer in stem cells (Human stem cells (HSC) [1]): not working so well | inhibition of viral replication (E copies, fold change vs DMSO) [2]: inhibits Delta and Omicron replication to a greater extent than Alpha | cell viability after treatment (Human stem cells (HSC) [3]): viability is good | fold rescue compared to inhibited baseline (IFITM3 [4]): 29.2 fold | IFITM3 protein levels by immunoblot (IFITM3 [5]): most potent effect
